Measurements taken from US20230279072A1, “REGULATORY T CELL EPITOPES” (EpiVax Inc., priority 2020, published 2023).
“Also recorded” adds a separate entry of the source.

Columns and labels:
[1] = system: CD4+CD25+FoxP3+ regulatory T cells; type: cell-based, human
[2] = system: CD4+ T cells in PBMCs from healthy donors; assay: Tetanus Toxoid Bystander Suppression Assay (TTBSA); type: cell-based, human
[3] = system: CD4+ effector memory T cells; assay: Suppression of Tetanus Toxoid stimulated CD4+ effector T cells in PBMC; type: cell-based, human
Description: Previously harvested and frozen PBMC were thawed and suspended in conditioned chRPMI (3.3×10^6 cells/mL) by conventional means. Cells were stained with CFSE (Cat #: 65-0850-84, Affymetrix, Santa Clara, Calif.) and plated at 300,000 cells per well. Plates were incubated overnight (37° C. in 5% CO2). […] Previous titration experiments performed at EpiVax (EpiVax, Providence, R.I.) have established that stimulation with 0.5 μg/ml Tetanus Toxoid (TT) (Astarte Biologics, Bothell, Wash.) elicits a measurable CD4+ effector memory T cells response in PBMC drawn from healthy control donors (Rhode Island Blood Center, Providence, R.I.). Tetanus Toxoid stock (100 μg/mL) (Astarte Biologics, Bothell, Wash.) was diluted in conditioned chRPMI yielding a working concentration of 1 ug/mL. […] All plates were then incubated for six additional days. On assay day five, 100 μL of supernatant was removed from each well and replaced with freshly conditioned chRPMI.
On assay day seven, cells were removed from incubation. Cells were labeled for live/dead discrimination, for surface markers CD127, CCR7, CD4, CD45RA, and CD25 and for intracellular FoxP3. Stained cells were further prepared for FACS analysis by conventional means. Cells were first gated to eliminate aggregates and dead cells. Live cells were gated for CD4 T cells and all subsequent analysis was done on this population. The activated Teffector population was identified as the CD4+/CD25-high/FoxP3-intermediate (CD4+/CD25^1/FoxP3int) (FIG. 8A).
Proliferation of CD4+/CD25-high (CD4^+/CD25^hi) T cells was estimated from the dilution of the CFSE stain (Cat #: 65-0850-84, Affymetrix, Santa Clara, Calif.) and % proliferation determined by the CFSE-low (CFSEL^lo) population (FIG. 8B).

[4] = system: HLA-DRB1*0101, *0301, *0401, *0701, *1101, *1301 and *1501 alleles; assay: In vitro HLA DRB1 binding assay, panel of seven alleles; set-up: species or system human
Description: The six FV peptides were tested for in vitro binding to HLA-DRB1*0101, *0301, *0401, *0701, *1101, *1301 and *1501 alleles.

[5] = target: HLA DRB1*0701 (Homo sapiens, UniProt P01903+P01911, A100R/A102G/A103Q/D57E/D86V/E43K/F76Y/K127E/L162R/M171V/P40G/Q125H/Q99D/R33Q/R42Y/R54Q/S133A/S66F/T210M/V115G/Y107V/Y59L/Y89S); assay: HLA DRB1 (IC50) | *0701
[6] = target: HLA DRB1*0401 (Homo sapiens, UniProt P01903+P01911, A100K/A169T/F76Y/I96L/K127E/L162R/M171V/N62H/P40V/Q125Y/R42H/S133A/S149N/S66Y/V115G/V209L/W38E); assay: HLA DRB1 (IC50) | *0401
[7] = target: HLA DRB1*1101 (Homo sapiens, UniProt P01903+P01911, A100R/A169T/A87E/I96F/K41T/L162R/M171V/P40S/Q125H/Q178H/Q39Y/Q99D/R42S/S66Y/T262R/V115G/W38E); assay: HLA DRB1 (IC50) | *1101
[8] = system: PBMCs from lupus patients; details: cited from earlier work
[9] = system: human DR molecules; details: cited from earlier work

HLA DRB1*1101, sequence (P01903 26-254 limits assumed, other chains not shown): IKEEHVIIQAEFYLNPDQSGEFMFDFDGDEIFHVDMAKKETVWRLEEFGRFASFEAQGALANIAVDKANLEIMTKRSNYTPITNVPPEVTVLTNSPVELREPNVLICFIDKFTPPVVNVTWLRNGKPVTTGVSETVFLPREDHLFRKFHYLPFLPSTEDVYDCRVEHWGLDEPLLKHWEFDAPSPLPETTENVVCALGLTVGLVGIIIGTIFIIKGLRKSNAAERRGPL

In the case of CC[C@H](C)[C@H](NC(=O)[C@H](CO)NC(=O)[C@H](Cc1ccc(O)cc1)NC(=O)[C@@H]1CCCN1C(=O)[C@H](CCCNC(=N)N)NC(=O)[C@H](CO)NC(=O)[C@H](C)NC(=O)[C@H](CCSC)NC(=O)[C@H](CC(N)=O)NC(=O)[C@H](CCCCN)NC(=O)[C@H](Cc1ccccc1)NC(=O)[C@@H](NC(=O)[C@@H](NC(=O)[C@H](CCCCN)NC(C)=O)[C@@H](C)CC)C(C)C)C(=O)N[C@@H](Cc1ccc(O)cc1)C(N)=O [SEQ ID NO: 3], the “relative proportion of highly proliferative regulatory T cells (CFSE low FoxP3+) among CD25+ Granzyme B+ CD4+ T cells” value [1] is reported as “no significant effect”, the “inhibition of the CD4+ T memory response / T effector proliferation in the TTBSA” value [2] is reported as “did not inhibit” and the “activated (CD25 high) proliferating (CFSE low) CD4 T cells stimulated by Tetanus Toxoid” value [3] is reported as “no significant inhibitory effect”. The “activated effector CD4+ T cells (CD4+/CD25-high/FoxP3-intermediate) reacting to Tetanus Toxoid” value [3] was “no appreciable effect”, the “proliferation of CD4− cells” value ([3]; FIG. 11) was “little inhibitory effect” and the “proliferation of total CD4+ T cells (CFSE low)” value ([3]; donor 114, dose-dependent) was “little to no effect”. The “binding affinity to HLA DR alleles (in words)” value ([4]; across the alleles tested) was “strong affinity” and the “breadth of binding to HLA DRB1 alleles” value ([4]; seven alleles, listed as FV432) was “binding to nearly all of the HLA DRB1 alleles tested; also recorded: bind to multiple HLA DRB1 alleles”.

Work on CC[C@H](C)[C@H](NC(=O)[C@@H](NC(=O)[C@H](CC(C)C)NC(=O)[C@@H](NC(=O)[C@H](Cc1ccccc1)NC(=O)[C@H](CC(=O)O)NC(=O)[C@@H](NC(=O)CN)[C@@H](C)O)[C@@H](C)O)[C@@H](C)O)C(=O)N[C@@H](CO)C(=O)N[C@@H](CO)C(=O)N[C@@H](CC(C)C)C(=O)N[C@@H](CCC(N)=O)C(=O)N1CCC[C@H]1C(=O)N[C@@H](CCC(=O)O)C(=O)N[C@@H](CC(=O)O)C(=O)O [SEQ ID NO: 117 | Tregitope 084, GTDFTLTISSLQPED] yielded an IC50 [5] of under 1 µM, an IC50 [6] of under 1 µM and an IC50 [7] of 100 µM.

In the case of “RIHMVYSKRSGKPRGYAFIEY (listed as Homo sapiens) [peptide 131-151, residues 131-151 of the spliceosome protein]”, the “randomly selected lupus patients whose PBMCs contain T cells that proliferate in response to the peptide” value [8] is listed as 40% and the “binding to human DR molecules” value [9] is listed as “binds to a large panel of human DR molecules”.
